Data taken from patent publication US20230044787A1, “TRICYCLE DIHYDROIMIDAZOPYRIMIDONE DERIVATIVE, PREPARATION METHOD THEREOF, PHARMACEUTICAL COMPOSITION AND USE THEREOF” (priority 2019, published 2023).
pIC50: −log10 of the molar value.

Molecular target: T1, Lp-PLA2 (Homo sapiens, UniProt Q13093)
T1 construct: aliquoted and thawed 40 μL of pooled human plasma was previously added; from tissue; host or cells: pooled human plasma
T1 sequence (Q13093 22-441): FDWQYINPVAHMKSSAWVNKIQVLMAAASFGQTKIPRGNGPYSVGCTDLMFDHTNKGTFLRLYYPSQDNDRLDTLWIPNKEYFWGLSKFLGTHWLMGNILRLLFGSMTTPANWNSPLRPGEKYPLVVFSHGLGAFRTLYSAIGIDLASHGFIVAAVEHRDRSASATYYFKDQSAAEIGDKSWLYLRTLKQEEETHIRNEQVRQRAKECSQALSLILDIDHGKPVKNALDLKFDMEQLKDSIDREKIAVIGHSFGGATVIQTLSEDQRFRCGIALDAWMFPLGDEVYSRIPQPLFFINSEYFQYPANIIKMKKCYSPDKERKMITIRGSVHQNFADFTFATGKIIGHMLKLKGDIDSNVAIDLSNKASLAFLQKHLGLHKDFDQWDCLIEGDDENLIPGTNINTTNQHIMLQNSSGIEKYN
Experiment: Lipoprotein-associated phospholipase A2 (Lp-PLA2) human plasma assay (Thio-PAF assay)
Type: biochemical
Details: Lp-PLA2 human plasma assay (Thio-PAF), pooled human plasma, 30-min pre-incubation at room temperature
Procedure: Lipoprotein-Associated Phospholipase A2 (Lp-PLA2) Human Plasma Assay
The amount of sulfhydryl groups is continuously determined by the reaction with CPM (7-diethylamino-3-(4′-maleimidophenyl)-4-methylcoumarin), and the CPM is a maleimide of which fluorescence increases after Michael addition of sulfhydryl group. This assay can detect Lp-PLA2 activity in human plasma, as determined by specific inhibition of Lp-PLA2 inhibitors.
Thio-PAF assay was performed as quenched 75 μL assay. Compound source plate was prepared for each compound by preparing 1:3 (by volume) serial dilutions in pure DMSO in a 96-well microplate. The compound on the source plate was diluted 20-fold by transferring 3 μL of the compound from the compound source plate into a 96-well microplate pre-added with 57 μL of assay buffer by Rainin multichannel pipette. The assay buffer described above consisted of 50 mM HEPES, pH 7.4, 150 mM NaCl, 1 mM CHAPS. 1 μL of the 20-fold diluted compound was transferred by Rainin multichannel pipette into a 96-well Greiner 655076 (black) microplate to which aliquoted and thawed 40 μL of pooled human plasma was previously added. The plate was shaken for 20 seconds on a microplate shaker to mix well. After a 30-min pre-incubation at room temperature, 10 μL of substrate solution was added to the 96-well Greiner 655076 (black) microplate by Rainin multichannel pipette, in which the substrate solution contained 2.5 mM 2-thio-PAF [from ethanol stock], 32 μM CPM [from DMSO stock], and 3.2 mM NEM (N-ethylmaleimide) [freshly prepared in DMSO per experiment] in assay buffer consisting of 50 mM HEPES, pH 7.4; 150 mM NaCl; 1 mM CHAPS. After 2 min, the reaction was quenched with […] of 5% trifluoroacetic acid (TFA) in water. The plate was centrifuged at 2000 rpm for 1 minute. The plate was read at ex:380/em:485 using a Biotek Synergy H1 (H1MF) microplate reader. IC50 data, curves and QC analysis were performed using GraphPad Prism 6.0 and Excel.

pIC50	SMILES
6.75	COc1c(CCc2ccc(Oc3ccnc(C(F)(F)F)c3)cc2)nc(=O)n2c1N1C[C@@H]3C[C@]1(CO3)C2 [Example 170, (3S,11aR)-6-Methoxy-7-(4-((2-(trifluoromethyl)pyridin-4-yl)oxy)phenethyl)-3,4-dihydro-1H,9H,11H-3,11a-methanopyrimido[6′,1′:2,3]imidazo[5,1-c] [1,4]oxazin-9-one]
7.81	O=c1nc(OCc2ccc(Oc3ccnc(C(F)F)c3)c(F)c2)cc2n1CC13CCC(CC1)N23 [Example 196]
8.04	COc1c(OCCc2ccc(Oc3ccnc(C(F)(F)F)c3)cc2)nc(=O)n2c1N1CC3CC1(C3)C2 [Example 188]
8.30	Cc1c(OCc2ccc(Oc3ccnc(C(F)(F)F)c3)cc2)nc(=O)n2c1N1C[C@@H]3C[C@]1(CO3)C2 [Example 108, (3S,11aR)-7-((4-((2-(trifluoromethyl)pyridin-4-yl)oxy)benzyl)oxy)-6-methyl-3,4-dihydro-1H,9H,11H-3,11a-methanopyrimido[6′,1′:2,3] imidazo[5,1-c][1,4]oxazin-9-one]
8.40	O=c1nc(OCc2cc(F)c(Oc3cccc(C(F)(F)F)c3)c(F)c2)cc2n1C[C@]13CO[C@H](CN21)C3 [Example 194, (3S,11aR)-7-((3,5-difluoro-4-(3-(trifluoro-methyl)phenoxy)benzyl)oxy)-3,4-dihydro-1H,9H,11H-3,11a-methanopyrimido[6′,1′:2,3] imidazo[5,1-c][1,4]oxazin-9-one]
8.46	N#Cc1cc(COc2cc3n(c(=O)n2)C[C@]24CO[C@H](CN32)C4)ccc1Oc1ccc(Cl)c(C(F)(F)F)c1 [Example 18, 5-((((3S,11aR)-9-oxo-3,4-dihydro-1H,9H,11H-3,11a-methanopyrimido[6′,1′:2,3]imidazo[5,1-c][1,4]oxazin-7-yl)oxy)methyl)-2-(4-chloro-3-(trifluoromethyl)phenoxy) benzonitrile]
8.31	O=c1nc(OCCc2cc(F)c(Oc3ccnc(C(F)(F)F)c3)c(F)c2)cc2n1CC13CC(CN21)C3 [Example 169, 3-(3,5-Difluoro-4-((2-(trifluoromethyl)pyridin-4-yl)oxy)phenethoxy)-7,8-dihydro-1H1,6H1,9H-7,8a-methanopyrrolo[1′, 2′:3, 4]imidazo[1,2-c]pyrimidin-1-one]
8.17	Cc1cc(Oc2c(F)cc(COc3cc4n(c(=O)n3)C[C@]35CO[C@H](CN43)C5)cc2F)ccn1 [Example 10, (3S,11aR)-7-((3,5-difluoro-4-((2-methyl-pyridin-4-yl)oxy)benzyl)oxy)-3,4-dihydro-1H,9H,11H-3,11a-methanopyrimido[6′,1′:2,3] imidazo[5,1-c][1,4]oxazin-9-one]
8.24	COc1c(OCc2cc(F)c(F)c(F)c2)nc(=O)n2c1N1C[C@@H]3C[C@]1(CO3)C2 [Example 114, (3S,11aR)-7-((3,4,5-trifluorobenzyl)oxy)-6-methoxy-3,4-dihydro-1H,9H,11H-3,11a-methanopyrimido[6′,1′:2,3] imidazo[5,1-c][1,4]oxazin-9-one]
8.32	O=c1nc(OCc2cc(F)c(Oc3ccnc(C(F)(F)F)c3)c(F)c2)c(Cl)c2n1C[C@]13CO[C@H](CN21)C3 [Example 91, (3S,11aR)-7-((3,5-difluoro-4-((2-(trifluoromethyl)pyridin-4-yl)oxy)benzyl)oxy)-6-chloro-3,4-dihydro-1H,9H,11H-3,11a-methanopyrimido[6′,1′:2,3] imidazo[5,1-c][1,4]oxazin-9-one]
8.24	CCC12CCCCN1c1cc(OCc3ccc(Oc4cccc(C(F)(F)F)c4)c(C#N)c3)nc(=O)n1C2 (stereo not shown) [Example 77, 5-(((9a-ethyl-1-oxo-6,7,8,9,9a,10-hexahydro-1H-pyrido[1′,2′:3,4]imidazo [1,2-c]pyrimidin-3-yl)oxy)methyl)-2-(3-(trifluoromethyl)phenoxy) benzonitrile]
7.62	COc1c(OCCc2ccc(Oc3cccc(C(F)(F)F)c3)cc2)nc(=O)n2c1N1CC3CC1(C3)C2 [Example 184, 4-methoxy-3-(4-(3-(trifluoromethyl)phenoxy)phenethoxy)-7,8-dihydro-1H,6H,9H-7,8a-methanopyrrolo[1′,2′:3,4]imidazo[1,2-c] pyrimidin-1-one]
8.21	N#Cc1cc(COc2cc3n(c(=O)n2)CC24CC(CN32)C4)ccc1F [Example 103]
8.42	N#Cc1cc(COc2cc3n(c(=O)n2)CC24CC(F)(CN32)C4)ccc1F [Example 160]
7.86	COc1c(OCCc2ccc(Oc3cccc(C(F)(F)F)c3)c(F)c2)nc(=O)n2c1N1CC3CC1(C3)C2 [Example 183, 3-(3-fluoro-4-(3-(trifluoromethyl)phenoxy)phenethoxy)-4-methoxy-7,8-dihydro-1H,6H, 9H-7,8a-methanopyrrolo[1′,2′:3,4]imidazo [1,2-c]pyrimidin-1-one]
7.20	Cn1cc(Oc2c(F)cc(COc3cc4n(c(=O)n3)CC35CCC(CC3)N45)cc2F)cn1 [Example 48, 3-((3,5-difluoro-4-((1-methyl-1H-pyrazol-4-yl)oxy)benzyl)oxy)-7,8-dihydro-1H,6H,9H-6,8a-ethanopyrrolo[1′,2′:3,4] imidazo[1,2-c]pyrimidin-1-one]
8.41	N#Cc1cc(COc2cc3n(c(=O)n2)CC24CC(CN32)C4)ccc1Oc1ccc(Cl)c(C(F)(F)F)c1 [Example 41]
7.74	O=c1nc(OCc2ccc(Oc3ccnc(C(F)F)c3)cc2)cc2n1CC13CC(CN21)C3 [Example 161]
7.82	N#Cc1cc(CCOc2cc3n(c(=O)n2)C[C@]24CO[C@H](CN32)C4)ccc1Oc1ccnc(C(F)(F)F)c1 [Example 101, 5-(2-(((3S,11aR)-9-oxo-3,4-dihydro-1H,9H,11H-3,11a-methanopyrimido[6′-,1′:2,3]imidazo[5,1-c][1,4]oxazin-7-yl)oxy)ethyl)-2-((2-(trifluoromethyl)pyridin-4-yl)oxy)benzonitrile]
8.28	O=c1nc(OCc2ccc(Oc3ccc(Cl)c(C(F)(F)F)c3)cc2)cc2n1C[C@]13CO[C@H](CN21)C3 [Example 16, (3S,11aR)-7-((4-(4-chloro-3-(trifluoromethyl)phenoxy)benzyl)oxy)-3,4-dihydro-1H,9H,11H-3,11a-methanopyrimido[6′,1′:2,3] imidazo[5,1-c][1,4]oxazin-9-one]
8.41	O=c1nc(OCc2ccc(Oc3ccnc(C(F)(F)F)c3)c(F)c2)cc2n1CC13CCC(COC1)N23 (stereo not shown) [Example 152, 7-((3-fluoro-4-((2-(trifluoromethyl)pyridin-4-yl)oxy)benzyl)oxy)-3,4-dihydro-1H,9H,11H-4,11a-ethanopyrimido[6′,1′:2,3] imidazo[5,1-c][1,4]oxazin-9-one]
7.30	Cn1cc(Oc2c(F)cc(COc3cc4n(c(=O)n3)CC3(C)CCCCN43)cc2F)cn1 (stereo not shown) [Example 68, 3-((3,5-difluoro-4-((1-methyl-1H-pyrazol-4-yl)oxy)benzyl)oxy)-9a-methyl-6,7,8,9,9a,10-hexahydro-1H-pyrido[1′,2′:3,4]imidazo [1,2-c]pyrimidin-1-one]
7.84	O=c1nc(OCc2cc(F)c(Oc3ccnc(C(F)(F)F)c3)c(F)c2)cc2n1CC13CCC(CC1)CN23 [Example 53, 3-((3,5-difluoro-4-((2-(trifluoromethyl)pyridin-4-yl)oxy)benzyl)oxy)-6,7,8,9-tetrahydro-1H,10H-7,9a-ethanopyrido[1′,2′:3,4] imidazo[1,2-c]pyrimidin-1-one]
8.16	CC12CCCCN1c1cc(OCc3cc(F)c(Oc4ccnc(C(F)(F)F)c4)c(F)c3)nc(=O)n1C2 (stereo not shown) [Example 66, 3-((3,5-difluoro-4-((2-(trifluoromethyl)pyridin-4-yl)oxy)benzyl)oxy)-9a-methyl-6,7,8,9,9a,10-hexahydro-1H-pyrido[1′,2′:3,4]imidazo [1,2-c]pyrimidin-1-one]
8.68	CN1C[C@]23C[C@H]1CN2c1cc(OCc2ccc(Oc4ccnc(C(F)(F)F)c4)c(F)c2)nc(=O)n1C3 [Example 171, (3S,11aS)-7-((3-Fluoro-4-((2-(trifluoromethyl)pyridin-4-yl)oxy)benzyl)oxy)-2-methyl-1,2,3,4-tetrahydro-9H,11H-3,11a-methanopyrazino[1′, 2′:3, 4]imidazo[1,2-c]pyrimidin-9-one]
